The values below come from PMC5618429, “Kempopeptin C, a Novel Marine-Derived Serine Protease Inhibitor Targeting Invasive Breast Cancer” (Marine Drugs, 2017).

Molecules are shown by their SMILES. Read-outs that look alike come from different tables or passages of the source.

In one data set the test system is chymotrypsin. Also on record: method as in PMID 18693761. The settings on record: cited from earlier work.
For a further data set, the target named is elastase. More on the design: method as in PMID 18693761. The settings on record: cited from earlier work.
The test system of a further data set is trypsin. Particulars: read-out: IC50 trypsin inhibition; cited from earlier work.
Data set [1] can be described thus: Cell viability assay (MTT). It is filed as cell-based. The settings on record: human, MDA-MB-231 breast cancer cells; MDA-MB-231, 48 h, all concentrations tested (32 µM to 320 pM). As for the experimental part:
MDA-MB-231 cells were seeded in 96-well plates (10,000 cells/well). After 24 h of incubation, the cells were treated with different concentrations of kempopeptins B or C (2 or 3) or the solvent control (DMSO). Following 48 h of incubation, cell viability was measured using 3-(4,5-dimethylthiazol-2-yl)-2,5-diphenyltetrazolium bromide according to the manufacturer's instructions (Promega, Madison, WI, USA).
Effect of kempopeptins on the viability of MDA-MB-231 cells
Kempopeptin C Kempopeptin B
Figure S1. Effect of kempopeptins B and C (2) and (3) on the viability of MDA -MB-231 breast cancer cells.

Data set [2] has as its target T1, recombinant human matriptase (Homo sapiens, UniProt Q9Y5Y6).
T1 construct: purchased R&D Systems 3946-SE-010
T1 sequence (Q9Y5Y6 615-855 limits assumed): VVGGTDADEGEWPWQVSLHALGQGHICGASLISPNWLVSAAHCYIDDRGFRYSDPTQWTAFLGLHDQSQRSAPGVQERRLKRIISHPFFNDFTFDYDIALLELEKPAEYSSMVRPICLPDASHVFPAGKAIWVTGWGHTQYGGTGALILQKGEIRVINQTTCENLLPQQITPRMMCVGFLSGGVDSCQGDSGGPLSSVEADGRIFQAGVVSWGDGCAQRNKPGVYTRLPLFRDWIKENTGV
The experiment in a line: Matriptase inhibition assay. The class given is biochemical. Particulars: mean ± SD, n = 3; 15-min preincubation; read-out: IC50 against matriptase. As to the method: In matriptase inhibition assay, 50 µL of recombinant human matriptase (R&D Systems, Minneapolis, MN, USA; 3946-SE-010) ([…] prepared in assay buffer: 50 mM Tris, 50 mM NaCl, 0.01% Tween 20; pH 9.0) and 1 µL of different concentrations of inhibitors (2 and 3; half log dilutions prepared in DMSO) or the solvent control were pre-incubated at room temperature for 15 min. Following the incubation period, 50 µL of the 50 µM substrate solution (Boc-Gln-Ala-Arg-AMC) (R&D Systems, Minneapolis, MN, USA; ES014) were added to each well, and the enzyme activity was monitored by measuring the increase in fluorescence signal from the fluorescently-labeled substrate every 30 s for 30 min (Ex 380 nm, Em 460 nm) using the SpectraMax M5 plate reader (Molecular Devices).

The subject of data set [3] is CDCP1 cleavage in MDA-MB-231 cells. As to the kind of experiment: Cleavage of CDCP1 in MDA-MB-231 cells (Western blot). It is filed as cell-based. The settings on record: 72 h, different concentrations. As to the method: The experiment was performed by treating MDA-MB-231 cells with different concentrations of either kempopeptin B (2) or C (3) for 72 h (Figure 6A). Dexamethasone (Dex) 100 nM was used as a positive control.
Figure 6 The effect of kempopeptins B and C (2 and 3) on CDCP1 cleavage in MDA-MB-231. (A) MDA-MB-231 cells were treated for 72 h with different concentrations of the test compounds. Following 72 h, the lysates were collected and analyzed by Western blot. (B) MDA-MB-231 cells were treated at different time points with 100 µM of kempopeptin C (3). Following 6 h, 12 h and 24 h, the lysates were collected and analyzed by Western blot. Dexamethasone (Dex) was used as a positive control. (C) MDA-MB-231 cells treated for 24 h with different concentrations of 3 in the presence of 10 nM recombinant human matriptase. Cell lysates were harvested and analyzed by Western blot. (D) Densitometric analysis of the full-length, LMW of CDCP1 and actin bands in (C).
MDA-MB-231 cells (150,000 cells/well) were seeded in 12-well plates. After 24 h, the media were replaced, and cells were treated with different concentrations of inhibitors (2 or 3; prepared in DMSO), the solvent control or the positive control dexamethasone. Whole-cell protein lysates were collected after 6, 12, 24 and 72 h using PhosphoSafe lysis buffer (Novagen, Madison, USA) and the protein concentration measured using the BCA Protein Assay kit (Pierce; 23227; Thermofisher Scientific; Waltham, MA, USA). Twenty micrograms of protein were separated by SDS-PAGE, transferred to polyvinylidene difluoride (PVDF) membranes, probed with CDCP1 antibody (Cell Signaling; 4115S) and detected with SuperSignal West Femto Maximum Sensitivity Substrate (Pierce).

In data set [4] the target is T2, trypsin from porcine pancreas (Sus scrofa, UniProt P00761).
T2 construct: purchased Sigma T0303; host or cells: porcine pancreas
T2 sequence (P00761 9-231): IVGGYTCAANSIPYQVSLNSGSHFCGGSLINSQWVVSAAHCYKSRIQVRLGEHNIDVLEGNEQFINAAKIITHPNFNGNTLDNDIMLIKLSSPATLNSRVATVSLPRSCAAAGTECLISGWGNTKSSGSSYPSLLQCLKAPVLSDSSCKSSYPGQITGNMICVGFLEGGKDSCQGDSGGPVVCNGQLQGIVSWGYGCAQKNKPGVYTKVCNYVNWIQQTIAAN
The experiment in a line: Trypsin inhibition assay. It is filed as biochemical. Particulars: mean ± SD, n = 3; 30-min preincubation; read-out: IC50 against trypsin. As to the method: The trypsin inhibition assay was carried out at room temperature by incubating 10 µL of trypsin from porcine pancreas (T0303, Sigma, St. Louis, MO, USA) (100 µM prepared in assay buffer) with 39 µL of assay buffer (50 mM Tris-HCl, 100 mM NaCl, 1 mM CaCl2; pH 7.8) in the presence of 1 µL of different concentrations of inhibitors (2 and 3; half log dilutions prepared in DMSO) or the solvent control. After a 30-min incubation time, 50 µL of the 1.5 mM substrate: Nα-benzoyl-DL-arginine-4-nitroanilide (prepared as 2 mM stock solution in DMF and further diluted to 1.5 mM in assay buffer) were added to each well. The reaction was monitored by measuring the absorbance at 405 nm every 30 s for 30 min using SpectraMax M5 plate reader (Molecular Devices, Sunnyvale, CA, USA).

The target of data set [5] is T3, plasmin from human plasma (Homo sapiens, UniProt P00747).
T3 construct: purchased Sigma P1867; host or cells: human plasma
T3 sequence (P00747 581-810 limits assumed): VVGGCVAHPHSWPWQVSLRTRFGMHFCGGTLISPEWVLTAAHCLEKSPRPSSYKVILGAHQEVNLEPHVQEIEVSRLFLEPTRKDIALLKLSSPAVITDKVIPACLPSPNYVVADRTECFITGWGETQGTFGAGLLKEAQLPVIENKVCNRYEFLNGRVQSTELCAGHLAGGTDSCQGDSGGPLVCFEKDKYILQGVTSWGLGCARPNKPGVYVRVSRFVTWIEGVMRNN
T3 sequence (P00747 98-580 partner limits assumed): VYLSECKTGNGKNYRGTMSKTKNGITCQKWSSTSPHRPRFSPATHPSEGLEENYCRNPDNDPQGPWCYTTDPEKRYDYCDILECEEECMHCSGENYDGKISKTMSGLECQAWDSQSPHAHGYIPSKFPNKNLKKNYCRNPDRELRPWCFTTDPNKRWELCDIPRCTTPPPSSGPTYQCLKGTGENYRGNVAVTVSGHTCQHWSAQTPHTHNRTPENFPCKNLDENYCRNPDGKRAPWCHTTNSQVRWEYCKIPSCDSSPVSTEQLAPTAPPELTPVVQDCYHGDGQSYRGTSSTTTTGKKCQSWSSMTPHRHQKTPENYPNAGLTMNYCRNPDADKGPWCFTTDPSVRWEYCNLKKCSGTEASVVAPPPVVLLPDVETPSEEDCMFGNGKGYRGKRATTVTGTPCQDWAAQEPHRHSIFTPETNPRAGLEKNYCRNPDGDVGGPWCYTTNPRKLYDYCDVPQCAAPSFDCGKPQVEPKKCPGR
The experiment in a line: Plasmin inhibition assay. The class given is biochemical. Particulars: mean ± SD, n = 3; 30-min preincubation; read-out: IC50 against plasmin. As to the method:
The plasmin inhibition assay was carried out by incubating 5 µL of […] plasmin from human plasma (P1867, Sigma, St. Louis, MO, USA) with 1 µL of different concentrations of inhibitors (2 and 3; half log dilutions prepared in DMSO) or the solvent control in the presence of 89 µL assay buffer (0.05 M Tris-HCl, pH 8.9). After a 30-min incubation time, 5 µL of 1.7 mM substrate solution (N-p-Tosyl-D-Gly-Pro-Lys-4-nitroanilide acetate salt; prepared in assay buffer) were added to each well. The reaction was monitored by measuring the absorbance at 405 nm every 30 s for 30 min using the SpectraMax M5 plate reader (Molecular Devices).

The subject of data set [6] is CDCP1 cleavage in MDA-MB-231 cells. More on the design: method as in PMID 22543582. Particulars: positive control, through upregulation of PAI-1; cited from earlier work.
For another data set, the system named is plasmin. More on the design: method as in PMID 20405925. Particulars: read-out: IC50 plasmin inhibition; cited from earlier work.

With `CC(=O)N1CCC[C@H]1C(=O)N[C@H](C(=O)N[C@@H]1C(=O)N[C@@H](CC(C)C)C(=O)N[C@H]2CC[C@@H](O)N(C2=O)[C@@H](Cc2ccccc2)C(=O)N(C)[C@@H](Cc2ccc(O)cc2)C(=O)N[C@@H](C(C)C)C(=O)O[C@@H]1C)[C@@H](C)O` [Kempopeptin A, kempopeptin A], the IC50 in the data set on chymotrypsin (read-out: IC50 chymotrypsin inhibition) was 2600 nM; on elastase (read-out: IC50 elastase inhibition), 320 nM.

As for `CCCC(=O)N[C@@H](CCC(N)=O)C(=O)N[C@@H]1C(=O)N[C@@H](CCCNC(N)=O)C(=O)N[C@H]2CC[C@@H](O)N(C2=O)[C@@H]([C@@H](C)CC)C(=O)N(C)[C@@H](Cc2ccc(OC)c(Br)c2)C(=O)N[C@@H](C(C)C)C(=O)O[C@@H]1C` [Symplocamide A, symplocamide A], the IC50 with trypsin is about 80000 nM.

In turn, `CCCC(=O)N[C@H](C(=O)N[C@@H]1C(=O)N[C@@H](CCCCN)C(=O)N[C@H]2CC[C@@H](O)N(C2=O)[C@@H]([C@@H](C)CC)C(=O)N(C)[C@@H](Cc2ccc(OC)c(Br)c2)C(=O)N[C@@H](C(C)C)C(=O)O[C@@H]1C)C(C)C` [Kempopeptin B, kempopeptin B] came in with a viability at 48 h in data set [1] of over 90%. The IC50 in data set [2] is 1830 ± 190 nM; with chymotrypsin (read-out: IC50 against chymotrypsin) it was over 67000 nM; at elastase (read-out: IC50 against elastase), over 67000 nM; in [4] it was 1490 ± 180 nM; in [5], 1050 ± 190 nM. Moreover, the “Inhibition of CDCP1 cleavage in MDA-MB-231” value in data set [3] is on record as “No inhibition of CDCP1 cleavage was observed”.

As for `C[C@@H]1C[C@H]2[C@@H]3CCC4=CC(=O)C=C[C@]4(C)[C@@]3(F)[C@@H](O)C[C@]2(C)[C@@]1(O)C(=O)CO` [Dexamethasone], the “Effect on cleavage of full-length CDCP1” value in data set [6] is “blocks the cleavage of the full-length CDCP1”.

Turning to `CCCCCC(=O)N[C@@H](CCC(=O)O)C(=O)N[C@@H]1C(=O)N[C@@H](CCCNC(=N)N)C(=O)N[C@H]2CC[C@@H](O)N(C2=O)[C@@H](Cc2ccccc2)C(=O)N(C)[C@@H](Cc2ccc(O)cc2)C(=O)N[C@@H](C(C)C)C(=O)O[C@@H]1C` [Cyanopeptolin 1020, cyanopeptolin 1020], the half-inhibitory concentration (IC50) in the data set with trypsin was 0.67 nM; in the data set on plasmin, about 490 nM.

Regarding `CC(C)C[C@@H](NC(=O)[C@H](O)COS(=O)(=O)O)C(=O)N[C@@H]1C(=O)N[C@@H](CCCNC(=N)N)C(=O)N[C@H]2CC[C@@H](O)N(C2=O)[C@@H](CC(C)C)C(=O)N(C)[C@@H](Cc2ccc(O)cc2)C(=O)N[C@@H](C(C)C)C(=O)O[C@@H]1C` [Compound A90720A, A90720A], the IC50 in the data set on trypsin was about 10 nM.
